Several values for one entry are separate records, joined by “and”; a condition that tells them apart may be missing. Identical values can stand only once. Like-named read-outs stand apart in the source and are kept apart here.
Target: T1, CHK2 (Homo sapiens, UniProt O96017)
T1 construct: made in house
Assay: CHK2 kinase activity assay (DELFIA, phosphorylation of a CDC25C peptide)
Format: biochemical
Settings: ATP 30 μM, CHK2 1 nM, read-out: IC50, inhibition of CHK2 kinase activity in vitro

T1 sequence (O96017 whole entry): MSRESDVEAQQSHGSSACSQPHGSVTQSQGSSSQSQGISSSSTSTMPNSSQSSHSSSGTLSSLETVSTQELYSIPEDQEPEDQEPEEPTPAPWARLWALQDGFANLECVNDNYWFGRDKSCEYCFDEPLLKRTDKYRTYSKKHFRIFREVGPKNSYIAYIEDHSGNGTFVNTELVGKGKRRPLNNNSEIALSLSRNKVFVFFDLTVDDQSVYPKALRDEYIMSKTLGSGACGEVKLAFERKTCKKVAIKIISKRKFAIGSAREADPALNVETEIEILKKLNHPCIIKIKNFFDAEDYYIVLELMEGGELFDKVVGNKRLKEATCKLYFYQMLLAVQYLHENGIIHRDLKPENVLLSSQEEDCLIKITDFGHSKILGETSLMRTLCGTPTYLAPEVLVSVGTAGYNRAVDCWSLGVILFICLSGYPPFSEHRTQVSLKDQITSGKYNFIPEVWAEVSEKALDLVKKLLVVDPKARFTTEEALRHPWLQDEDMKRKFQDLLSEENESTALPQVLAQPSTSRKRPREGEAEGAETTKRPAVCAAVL

Row | Structure (SMILES) | IC50 (following further studies) | IC50 (first set of tested compounds)
1 | COCCOc1ccc2nc(-c3cc(F)ccc3O)nc(N[C@H]3CCNC3)c2c1 [Compound A-095, (S)-4-Fluoro-2-(6-(2-methoxyethoxy)-4-(pyrrolidin-3-ylamino)quinazolin-2-yl)phenol] | ≤ 0.3 µM | –
2 | CC(C)(O)CCc1ccc2c(N[C@H]3CCNC3)nc(-c3cc(F)ccc3O)nc2c1 [Compound A-097, (S)-4-Fluoro-2-(7-(3-hydroxy-3-methylbutyl)-4-(pyrrolidin-3-ylamino)quinazolin-2-yl)phenol] | ≤ 0.3 µM | –
3 | Oc1ccc(-c2ccc(F)cc2)cc1-c1nc(N[C@H]2CCNC2)c2ccccc2n1 [Compound A-100, (S)-4′-Fluoro-3-(4-(pyrrolidin-3-ylamino)quinazolin-2-yl)biphenyl-4-ol] | 3 to 30 µM | –
4 | NC(=O)c1ccc(-c2ccc(O)c(-c3nc(N[C@H]4CCNC4)c4ccccc4n3)c2)cc1 [Compound A-101, (S)-4′-Hydroxy-3′-(4-(pyrrolidin-3-ylamino)quinazolin-2-yl)biphenyl-4-carboxamide] | 3 to 30 µM | –
5 | CC(C)(O)CCc1ccc2nc(-c3cc(F)ccc3O)nc(N[C@H]3CCNC3)c2c1 [Compound A-102, (S)-4-Fluoro-2-(6-(3-hydroxy-3-methylbutyl)-4-(pyrrolidin-3-ylamino)quinazolin-2-yl)phenol] | ≤ 0.3 µM | –
6 | COCCOc1cc2c(N[C@H]3CCNC3)nc(-c3cc(F)ccc3O)nc2cc1OC [Compound A-103, (S)-4-Fluoro-2-(7-methoxy-6-(2-methoxyethoxy)-4-(pyrrolidin-3-ylamino)quinazolin-2-yl)phenol] | ≤ 0.3 µM | –
7 | COCCOc1cc2nc(-c3cc(F)ccc3O)nc(N[C@H]3CCNC3)c2cc1OCCOC [Compound A-104, (S)-2-(6,7-bis(2-Methoxyethoxy)-4-(pyrrolidin-3-ylamino)quinazolin-2-yl)-4-fluorophenol] | ≤ 0.3 µM | –
8 | Oc1ccc(-c2cccc(F)c2)cc1-c1nc(N[C@H]2CCNC2)c2ccccc2n1 [Compound A-107, (S)-3′-Fluoro-3-(4-(pyrrolidin-3-ylamino)quinazolin-2-yl)biphenyl-4-ol] | 0.3 to 3 µM | –
9 | Oc1ccc(-c2ccsc2)cc1-c1nc(N[C@H]2CCNC2)c2ccccc2n1 [Compound A-108, (S)-2-(4-(Pyrrolidin-3-ylamino)quinazolin-2-yl)-4-(thiophen-3-yl)phenol] | 0.3 to 3 µM | –
10 | CC(C)(O)C#Cc1ccc2nc(-c3cc(F)ccc3O)nc(N[C@H]3CCNC3)c2c1 [Compound A-109, (S)-4-Fluoro-2-(6-(3-hydroxy-3-methylbut-1-ynyl)-4-(pyrrolidin-3-ylamino)quinazolin-2-yl)phenol] | 0.3 to 3 µM | –
11 | Nc1nnc(-c2ccc(O)c(-c3nc(N[C@H]4CCNC4)c4ccccc4n3)c2)s1 [Compound A-110, (S)-4-(5-Amino-1,3,4-thiadiazol-2-yl)-2-(4-(pyrrolidin-3-ylamino)quinazolin-2-yl)phenol] | ≤ 0.3 µM | –
12 | Oc1ccc(F)cc1-c1nc(N[C@H]2CCNC2)c2ccc(F)cc2n1 [Compound A-114, (S)-4-Fluoro-2-(7-fluoro-4-(pyrrolidin-3-ylamino)quinazolin-2-yl)phenol] | ≤ 0.3 µM | –
13 | NC1CCC(Nc2nc(-c3ccccc3O)nc3ccccc23)CC1 (centres unmarked) [Compound B-001, 2-[4-(4-Aminocyclohexylamino)-quinazolin-2-yl]-phenol] | 3 to 30 µM | 3 to 30 µM
14 | NC1CCCC(Nc2nc(-c3ccccc3O)nc3ccccc23)C1 (centres unmarked) [Compound B-004, 2-[4-(3-Aminocyclohexylamino)-quinazolin-2-yl]-phenol] | 0.3 to 3 µM | < 3 µM
15 | Oc1ccccc1-c1cc(N[C@H]2CCNC2)c2ccccc2n1 [Compound C-001, (S)-2-(4-(Pyrrolidin-3-ylamino)quinolin-2-yl)phenol] | 3 to 30 µM and 4.4 µM | 3 to 30 µM
16 | Oc1ccccc1-c1nccc(N[C@H]2CCNC2)n1 [Compound D-002] | 3 to 30 µM and 8.2 µM | 3 to 30 µM

The remaining lines, values ahead:

Row | IC50 (following further studies) | IC50 (first set of tested compounds) | Structure (SMILES)
17 | ≤ 0.3 µM | – | Oc1ccc(F)cc1-c1nc(N[C@H]2CCNC2)c2ccc(-c3cn[nH]c3)cc2n1 [Compound A-068, (S)-2-(7-(1H-Pyrazol-4-yl)-4-(pyrrolidin-3-ylamino)quinazolin-2-yl)-4-fluorophenol]
18 | ≤ 0.3 µM | – | OCCCc1ccc2c(N[C@H]3CCNC3)nc(-c3cc(F)ccc3O)nc2c1 [Compound A-071, (S)-4-Fluoro-2-(7-(3-hydroxypropyl)-4-(pyrrolidin-3-ylamino)quinazolin-2-yl)phenol]
19 | ≤ 0.3 µM | – | OCC#Cc1ccc2c(N[C@H]3CCNC3)nc(-c3cc(F)ccc3O)nc2c1 [Compound A-072, (S)-4-Fluoro-2-(7-(3-hydroxyprop-1-ynyl)-4-(pyrrolidin-3-ylamino)quinazolin-2-yl)phenol]
20 | ≤ 0.3 µM | – | COc1ccc2nc(-c3cc(F)ccc3O)nc(N[C@H]3CCNC3)c2c1 [Compound A-073, (S)-4-Fluoro-2-(6-methoxy-4-(pyrrolidin-3-ylamino)quinazolin-2-yl)phenol]
21 | ≤ 0.3 µM | – | COc1ccc2c(N[C@H]3CCNC3)nc(-c3cc(F)ccc3O)nc2c1 [Compound A-074, (S)-4-Fluoro-2-(7-methoxy-4-(pyrrolidin-3-ylamino)quinazolin-2-yl)phenol]
22 | ≤ 0.3 µM | – | COC/C=C/c1ccc2c(N[C@H]3CCNC3)nc(-c3ccccc3O)nc2c1 [Compound A-078, (S,E)-2-(7-(3-Methoxyprop-1-enyl)-4-(pyrrolidin-3-ylamino)quinazolin-2-yl)phenol]
23 | ≤ 0.3 µM | – | COCCCc1ccc2c(N[C@H]3CCNC3)nc(-c3ccccc3O)nc2c1 [Compound A-079, (S)-2-(7-(3-Methoxypropyl)-4-(pyrrolidin-3-ylamino)quinazolin-2-yl)phenol]
24 | ≤ 0.3 µM | – | COc1ccc2c(N[C@@H]3CN[C@@H](CO)C3)nc(-c3cc(F)ccc3O)nc2c1 [Compound A-087, 4-Fluoro-2-(4-((3S,5R)-5-(hydroxymethyl)pyrrolidin-3-ylamino)-7-methoxyquinazolin-2-yl)phenol]
25 | ≤ 0.3 µM | – | CC(C)(O)C#Cc1ccc2c(N[C@H]3CCNC3)nc(-c3cc(F)ccc3O)nc2c1 [Compound A-093, (S)-4-Fluoro-2-(7-(3-hydroxy-3-methylbut-1-ynyl)-4-(pyrrolidin-3-ylamino)quinazolin-2-yl)phenol]

Source: US8324226B2, “Therapeutic oxy-phenyl-aryl compounds and their use” (Cancer Research Technology Limited, priority 2007, dated 2012)
